The results in this text go back to patent US8569344B2, “N-piperidinyl acetamide derivatives as calcium channel blockers” (Zalicus Pharmaceuticals Ltd., priority 2008, dated 2013).

Test [1] addresses T1, human α1H T-type channels (Homo sapiens, UniProt O95180).
T1 construct: expressed in transfected cells; host or cells: HEK 293
Put plainly: T-type calcium channel block, whole cell patch clamp in HEK cells (α1H). In kind it is cell-based. Conditions: HEK cells, patch clamp, mainly non-inactivated protocol; values above 10 μM shown as 10 μM; read-out: T-type Calcium Channel Block α1H IC50. As for the experimental part: T-type calcium channel blocking activity was assayed in human embryonic kidney cells, HEK 293, stably transfected with the T-type calcium channel subunits. Briefly, cells were cultured in Dulbecco's modified eagle medium (DMEM) supplemented with 10% fetal bovine serum, 200 U/ml penicillin and 0.2 mg/ml streptomycin at 37° C. with 5% CO2. At 85% confluency cells were split with 0.25% trypsin/1 mM EDTA and plated at 10% confluency on glass coverslips. […] Fresh DMEM was supplied and the cells transferred to 28° C./5% CO2. Cells were incubated for 1 to 2 days prior to whole cell recording.
Standard patch-clamp techniques were employed to identify blockers of T-type currents. Briefly, previously described HEK cell lines stably expressing human α1G, α1H and α1I T-type channels were used for all the recordings (passage #: 4-20, 37° C., 5% CO2). Whole cell patch clamp experiments were performed using an Axopatch 200B amplifier (Axon Instruments, Burlingame, Calif.) linked to a personal computer equipped with pCLAMP software. Data were analyzed using Clampfit (Axon Instruments) and SigmaPlot 4.0 (Jandel Scientific). To obtain T-type currents, plastic dishes containing semi-confluent cells were positioned on the stage of a ZEISS AXIOVERT S100 microscope after replacing the culture medium with external solution (see below). Whole-cell patches were obtained using pipettes (borosilicate glass with filament, O.D.: 1.5 mm, I.D.: 0.86 mm, 10 cm length), fabricated on a SUTTER P-97 puller with resistance values of ˜5 MΩ (see below for internal solution).
In the non-inactivating protocol, the holding potential is set at −110 mV and with a pre-pulse at −100 mV for 1 second prior to the test pulse at −40 mV for 50 ms.
Test compounds were dissolved in external solution, 0.1-0.01% DMSO. After ˜10 min rest, they were applied by gravity close to the cell using a WPI microfil tubing. The “non-inactivated” pre-pulse was used to examine the resting block of a compound. The “inactivated” protocol was employed to study voltage-dependent block. […] Values are shown in μM and values above 10 μM are simply represented as 10 μM.

The target of test [2] is T2, human α1G T-type channels (Homo sapiens, UniProt O43497).
T2 construct: expressed in transfected cells; host or cells: HEK 293
Put plainly: T-type calcium channel block, whole cell patch clamp in HEK cells (α1G). Conditions: HEK cells, patch clamp, mainly non-inactivated protocol; values above 10 μM shown as 10 μM, below 0.30 μM shown as 0.30 μM; read-out: T-type Calcium Channel Block α1G IC50. It is filed as cell-based.

T2 sequence (O43497 whole entry): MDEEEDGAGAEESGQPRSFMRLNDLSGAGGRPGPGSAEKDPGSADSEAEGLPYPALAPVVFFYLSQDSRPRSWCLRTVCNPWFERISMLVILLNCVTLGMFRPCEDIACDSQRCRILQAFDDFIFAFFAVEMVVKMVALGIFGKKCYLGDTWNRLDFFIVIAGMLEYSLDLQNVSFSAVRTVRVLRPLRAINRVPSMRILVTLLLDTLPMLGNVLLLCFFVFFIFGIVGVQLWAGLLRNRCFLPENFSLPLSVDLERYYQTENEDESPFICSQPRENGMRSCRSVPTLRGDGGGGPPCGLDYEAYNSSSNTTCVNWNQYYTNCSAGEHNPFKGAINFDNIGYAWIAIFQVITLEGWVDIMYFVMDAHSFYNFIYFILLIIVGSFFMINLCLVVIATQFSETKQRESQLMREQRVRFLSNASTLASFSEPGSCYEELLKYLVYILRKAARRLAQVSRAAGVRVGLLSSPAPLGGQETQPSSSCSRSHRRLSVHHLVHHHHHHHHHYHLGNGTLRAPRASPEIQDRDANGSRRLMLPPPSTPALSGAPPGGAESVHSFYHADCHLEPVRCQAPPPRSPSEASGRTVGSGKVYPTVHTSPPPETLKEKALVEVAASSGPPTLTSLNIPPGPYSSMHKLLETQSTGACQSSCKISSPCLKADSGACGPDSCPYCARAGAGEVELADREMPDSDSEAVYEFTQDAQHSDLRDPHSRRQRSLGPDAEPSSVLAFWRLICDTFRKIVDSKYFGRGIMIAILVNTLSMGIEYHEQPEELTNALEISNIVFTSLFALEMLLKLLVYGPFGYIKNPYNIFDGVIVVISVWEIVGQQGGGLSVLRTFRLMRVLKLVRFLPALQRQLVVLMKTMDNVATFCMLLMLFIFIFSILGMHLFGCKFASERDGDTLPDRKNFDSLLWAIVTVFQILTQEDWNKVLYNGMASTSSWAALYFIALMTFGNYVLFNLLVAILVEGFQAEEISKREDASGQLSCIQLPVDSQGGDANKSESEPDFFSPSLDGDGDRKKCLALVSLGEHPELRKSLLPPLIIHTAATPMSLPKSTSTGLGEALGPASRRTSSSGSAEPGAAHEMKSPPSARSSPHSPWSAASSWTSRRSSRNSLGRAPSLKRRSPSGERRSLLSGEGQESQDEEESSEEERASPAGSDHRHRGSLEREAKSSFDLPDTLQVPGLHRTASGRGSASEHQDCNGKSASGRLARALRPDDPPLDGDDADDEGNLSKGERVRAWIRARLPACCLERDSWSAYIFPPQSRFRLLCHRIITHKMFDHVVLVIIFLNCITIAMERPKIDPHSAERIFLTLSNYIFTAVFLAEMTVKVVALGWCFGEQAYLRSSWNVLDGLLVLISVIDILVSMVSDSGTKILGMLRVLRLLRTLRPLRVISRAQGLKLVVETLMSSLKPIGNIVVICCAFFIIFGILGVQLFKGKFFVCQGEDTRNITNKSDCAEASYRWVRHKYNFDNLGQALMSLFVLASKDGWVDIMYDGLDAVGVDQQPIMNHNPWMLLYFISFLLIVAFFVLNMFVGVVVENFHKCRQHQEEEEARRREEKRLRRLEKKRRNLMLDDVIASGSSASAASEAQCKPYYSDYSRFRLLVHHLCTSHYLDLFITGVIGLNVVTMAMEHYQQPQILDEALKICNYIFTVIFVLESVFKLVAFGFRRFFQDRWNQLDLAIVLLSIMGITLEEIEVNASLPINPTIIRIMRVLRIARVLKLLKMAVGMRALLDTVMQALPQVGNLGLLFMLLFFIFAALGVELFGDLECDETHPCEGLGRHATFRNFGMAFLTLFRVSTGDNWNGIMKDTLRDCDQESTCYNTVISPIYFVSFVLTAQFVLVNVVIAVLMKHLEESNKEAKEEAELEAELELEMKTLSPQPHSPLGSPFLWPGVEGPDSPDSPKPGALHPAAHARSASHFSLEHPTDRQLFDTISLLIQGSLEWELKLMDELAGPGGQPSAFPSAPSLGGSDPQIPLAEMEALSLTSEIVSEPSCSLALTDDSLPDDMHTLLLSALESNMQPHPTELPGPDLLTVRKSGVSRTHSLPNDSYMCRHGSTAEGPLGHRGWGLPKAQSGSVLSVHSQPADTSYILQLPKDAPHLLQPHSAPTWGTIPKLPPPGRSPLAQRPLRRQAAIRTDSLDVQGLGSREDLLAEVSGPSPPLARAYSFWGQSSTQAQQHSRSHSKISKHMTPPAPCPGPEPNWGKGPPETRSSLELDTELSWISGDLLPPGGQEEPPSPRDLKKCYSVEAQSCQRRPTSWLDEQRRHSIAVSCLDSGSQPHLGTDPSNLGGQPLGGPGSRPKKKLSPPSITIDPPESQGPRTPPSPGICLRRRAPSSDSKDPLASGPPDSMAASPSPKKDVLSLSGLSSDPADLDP
T1 sequence (O95180 whole entry): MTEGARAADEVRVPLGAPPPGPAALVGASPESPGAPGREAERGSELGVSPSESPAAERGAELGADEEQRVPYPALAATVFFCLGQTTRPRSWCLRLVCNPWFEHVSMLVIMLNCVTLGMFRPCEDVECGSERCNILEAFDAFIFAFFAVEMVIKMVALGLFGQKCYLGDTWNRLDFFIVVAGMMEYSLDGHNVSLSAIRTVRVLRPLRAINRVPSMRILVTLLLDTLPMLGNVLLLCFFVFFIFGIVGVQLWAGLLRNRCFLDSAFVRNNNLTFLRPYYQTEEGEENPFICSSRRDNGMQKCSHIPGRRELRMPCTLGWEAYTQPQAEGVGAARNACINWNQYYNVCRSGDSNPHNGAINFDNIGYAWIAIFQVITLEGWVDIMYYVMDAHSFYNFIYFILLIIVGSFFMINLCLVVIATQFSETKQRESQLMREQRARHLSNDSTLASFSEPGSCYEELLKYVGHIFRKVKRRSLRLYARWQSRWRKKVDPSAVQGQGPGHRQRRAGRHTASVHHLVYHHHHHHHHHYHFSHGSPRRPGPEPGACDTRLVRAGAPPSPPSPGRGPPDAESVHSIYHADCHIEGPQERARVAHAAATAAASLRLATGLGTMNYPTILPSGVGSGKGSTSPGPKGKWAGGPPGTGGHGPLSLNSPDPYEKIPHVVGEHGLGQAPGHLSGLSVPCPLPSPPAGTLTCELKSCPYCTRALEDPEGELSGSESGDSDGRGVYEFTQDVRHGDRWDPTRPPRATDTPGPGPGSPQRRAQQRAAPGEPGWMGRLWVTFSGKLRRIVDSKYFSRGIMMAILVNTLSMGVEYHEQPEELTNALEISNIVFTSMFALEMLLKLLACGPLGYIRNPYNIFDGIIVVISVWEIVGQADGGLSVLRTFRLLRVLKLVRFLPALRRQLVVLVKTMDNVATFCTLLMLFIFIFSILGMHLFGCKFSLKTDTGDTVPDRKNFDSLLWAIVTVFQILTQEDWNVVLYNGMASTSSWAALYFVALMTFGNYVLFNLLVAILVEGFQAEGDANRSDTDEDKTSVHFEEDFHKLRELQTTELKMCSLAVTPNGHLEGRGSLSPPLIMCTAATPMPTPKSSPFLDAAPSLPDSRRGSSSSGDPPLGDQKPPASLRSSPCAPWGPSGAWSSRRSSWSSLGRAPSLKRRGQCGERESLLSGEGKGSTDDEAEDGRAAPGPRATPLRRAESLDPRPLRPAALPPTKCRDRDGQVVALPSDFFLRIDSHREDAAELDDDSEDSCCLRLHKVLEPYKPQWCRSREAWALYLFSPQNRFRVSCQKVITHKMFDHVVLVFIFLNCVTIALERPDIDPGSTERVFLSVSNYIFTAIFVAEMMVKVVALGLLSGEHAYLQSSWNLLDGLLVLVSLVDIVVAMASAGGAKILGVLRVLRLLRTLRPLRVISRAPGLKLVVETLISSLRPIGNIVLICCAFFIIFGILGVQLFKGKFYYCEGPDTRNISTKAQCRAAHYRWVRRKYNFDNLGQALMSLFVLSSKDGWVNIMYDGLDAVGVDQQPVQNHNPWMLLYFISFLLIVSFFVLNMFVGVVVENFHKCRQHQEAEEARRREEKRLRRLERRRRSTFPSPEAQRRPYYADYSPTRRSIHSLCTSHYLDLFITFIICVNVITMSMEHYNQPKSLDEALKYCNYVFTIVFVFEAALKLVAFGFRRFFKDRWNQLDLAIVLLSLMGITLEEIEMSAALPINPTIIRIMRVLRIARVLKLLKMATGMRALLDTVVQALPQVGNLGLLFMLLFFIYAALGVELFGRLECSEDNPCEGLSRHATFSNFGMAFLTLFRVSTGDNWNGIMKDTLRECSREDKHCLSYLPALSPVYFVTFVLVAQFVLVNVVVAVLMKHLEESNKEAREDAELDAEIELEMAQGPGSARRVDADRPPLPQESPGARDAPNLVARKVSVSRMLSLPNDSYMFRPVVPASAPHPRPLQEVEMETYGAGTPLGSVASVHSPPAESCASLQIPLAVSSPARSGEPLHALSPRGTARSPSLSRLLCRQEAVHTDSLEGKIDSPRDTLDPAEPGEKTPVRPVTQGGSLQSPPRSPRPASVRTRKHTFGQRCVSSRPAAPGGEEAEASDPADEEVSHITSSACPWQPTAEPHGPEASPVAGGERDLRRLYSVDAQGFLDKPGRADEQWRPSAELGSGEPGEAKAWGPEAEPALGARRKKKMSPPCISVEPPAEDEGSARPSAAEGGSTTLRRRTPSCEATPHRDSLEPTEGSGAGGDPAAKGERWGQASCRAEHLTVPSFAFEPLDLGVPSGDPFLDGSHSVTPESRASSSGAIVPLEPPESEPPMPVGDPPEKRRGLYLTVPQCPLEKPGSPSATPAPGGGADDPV

As for `COc1cc(C(=O)NCC2CCN(CCNC(=O)CCC(F)(F)F)CC2)cc(C(F)(F)F)c1` [Compound 317, 3-methoxy-N-((1-(2-(4,4,4-trifluorobutanamido)ethyl)piperidin-4-yl)methyl)-5-(trifluoromethyl)benzamide], the half-maximal inhibitory concentration (IC50) in test [1] is 0.56 µM; in test [2], 0.66 µM.
For `CC(C)NC(=O)CN1CCC(CNC(=O)c2cccc(OC(F)(F)F)c2)CC1` [Compound 444, N-((1-(2-(isopropylamino)-2-oxoethyl)piperidin-4-yl)methyl)-3-(trifluoromethoxy)benzamide], in that order: above 10 µM and 7.4 µM.
In the case of `CC(C)(C)NC(=O)CN1CCC(CNC(=O)c2cc(C(F)(F)F)ccn2)CC1` [Compound 372, N-((1-(2-(tert-butylamino)-2-oxoethyl)piperidin-4-yl)methyl)-4-(trifluoromethyl)picolinamide], the IC50 in test [1] and in test [2] was above 10 µM each time.
In the case of `O=C(NCC1CCN(CC2(NS(=O)(=O)C3CC3)CCCC2)CC1)c1cc(C(F)(F)F)cc(C(F)(F)F)c1` [Compound 2, N-((1-((1-(cyclopropanesulfonamido)cyclopentyl)methyl)piperidin-4-yl)methyl)-3,5-bis(trifluoromethyl)benzamide], the IC50 in test [1] was 0.54 µM; in test [2], below 0.3 µM.
With `CC(C)(C)OC(=O)NC(CN1CCC(CC(=O)NCCc2c[nH]c3ccc(F)cc23)CC1)C(C)(C)C` (centres unmarked) [Compound 196, tert-butyl 1-(4-(2-(2-(5-fluoro-1H-indol-3-yl)ethylamino)-2-oxoethyl)piperidin-1-yl)-3,3-dimethylbutan-2-ylcarbamate], the IC50 in test [1] and in test [2] was above 10 µM throughout.
As to `CC(C)(NC(=O)CN1CCC(CNC(=O)c2cccc(Br)c2)CC1)C(F)(F)F` [Compound 459, 3-bromo-N-((1-(2-oxo-2-(1,1,1-trifluoro-2-methylpropan-2-ylamino)ethyl)piperidin-4-yl)methyl)benzamide], the IC50 is 0.02 µM in test [1] and below 0.3 µM in test [2].
For `CC(C)(C)NC(=O)CN1CCC(CNC(=O)c2cc(Br)cc(C(F)(F)F)c2)CC1` [Compound 382, 3-bromo-N-((1-(2-(tert-butylamino)-2-oxoethyl)piperidin-4-yl)methyl)-5-(trifluoromethyl)benzamide], in that order: 0.09 µM and below 0.3 µM.
Take `O=C(NC1CCCCC1)NC1(CN2CCC(CNC(=O)c3cc(C(F)(F)F)cc(C(F)(F)F)c3)CC2)CCCC1` [Compound 14, N-((1-((1-(3-cyclohexylureido)cyclopentyl)methyl)piperidin-4-yl)methyl)-3,5-bis(trifluoromethyl)benzamide]: the results for the IC50 in test [1] and in test [2] were 1.17 µM and below 0.3 µM, respectively.
Consider `O=C(CC1CCN(C(=O)C2(O)CCNCC2)CC1)Nc1cc(C(F)(F)F)cc(C(F)(F)F)c1` [Compound 157, N-(3,5-bis(trifluoromethyl)phenyl)-2-(1-(4-hydroxypiperidine-4-carbonyl)piperidin-4-yl)acetamide], for which the IC50 in test [1] is above 10 µM.
Consider `O=C(NCC1CCN(C2CN(C(=O)c3cccc(Cl)c3)C2)CC1)c1cc(F)cc(Cl)c1` [Compound 606, 3-chloro-N-((1-(1-(3-chlorobenzoyl)azetidin-3-yl)piperidin-4-yl)methyl)-5-fluorobenzamide], for which, in test [1], the IC50 came to 3.3 µM.
As to `CC(C)(C)OC(=O)N1CCC(O)(CN2CCC(CNC(=O)c3cc(F)cc(Cl)c3)CC2)CC1` [Compound 598, tert-butyl 4-((4-((3-chloro-5-fluorobenzamido)methyl)piperidin-1-yl)methyl)-4-hydroxypiperidine-1-carboxylate], the IC50 in test [1] stood at 1.65 µM.
As for `O=C(NCC1CCN(CCNC(=O)C2CCCC2)CC1)c1cc(C(F)(F)F)cc(C(F)(F)F)c1` [Compound 62, N-((1-(2-(cyclopentanecarboxamido)ethyl)piperidin-4-yl)methyl)-3,5-bis(trifluoromethyl)benzamide], the IC50 in test [1] stood at 0.23 µM.
The same measure, in the same setting: then `O=C(NCC1CCN(CC(=O)N2CCCC2C(F)(F)F)CC1)c1cc(C(F)(F)F)cc(C(F)(F)F)c1` (centres unmarked) [Compound 107, N-((1-(2-oxo-2-(2-(trifluoromethyl)pyrrolidin-1-yl)ethyl)piperidin-4-yl)methyl)-3,5-bis(trifluoromethyl) benzamide], with 0.16 µM; and `CN(C(=O)CN1CCC(CNC(=O)c2cc(Cl)cc(Br)c2)CC1)C1(C)CCC1` [Compound 595, 3-bromo-5-chloro-N-((1-(2-(methyl(1-methylcyclobutyl)amino)-2-oxoethyl)piperidin-4-yl)methyl)benzamide], with 0.08 µM; and `CC1(C(=O)N2CC(N3CCC(CNC(=O)c4cc(F)cc(Cl)c4)CC3)C2)CC1` [Compound 608, 3-chloro-5-fluoro-N-((1-(1-(1-methylcyclopropanecarbonyl)azetidin-3-yl)piperidin-4-yl)methyl)benzamide], with above 10 µM.
Consider `O=C(NCC1CCN(C2CN(C(=O)c3cccc(Br)c3)C2)CC1)c1cc(F)cc(Cl)c1` [Compound 602, N-((1-(1-(3-bromobenzoyl)azetidin-3-yl)piperidin-4-yl)methyl)-3-chloro-5-fluorobenzamide], for which the IC50 in test [1] turned out to be 2.41 µM.
On to `O=C(NCC1CCN(C2CN(C(=O)C3(C(F)(F)F)CCC3)C2)CC1)c1cc(F)cc(Cl)c1` [Compound 610, 3-chloro-5-fluoro-N-((1-(1-(1-(trifluoromethyl)cyclobutanecarbonyl)azetidin-3-yl)piperidin-4-yl)methyl) benzamide], for which the IC50 in test [1] came out at 0.77 µM.
Regarding `COc1cc(Cl)cc(C(=O)NCC2CCN(CC(=O)N(C)C3(C)CCC3)CC2)c1` [Compound 591, 3-chloro-5-methoxy-N-((1-(2-(methyl(1-methylcyclobutyl)amino)-2-oxoethyl)piperidin-4-yl)methyl)benzamide], the half-inhibitory concentration (IC50) in test [1] was determined as 0.17 µM.
On to `CC(C)(C)OC(=O)N1CC(N2CCC(CNC(=O)c3cc(F)cc(Cl)c3)CC2)C1` [Compound 597, tert-buyl 3-(4-((3-chloro-5-fluorobenzamido)methyl)piperidin-1-yl)azetidine-1-carboxylate], for which the IC50 in test [1] worked out at 6.52 µM.
Turning to `C[C@H]1CC[C@H](NC(=O)CN2CCC(CNC(=O)c3cc(C(F)(F)F)cc(C(F)(F)F)c3)CC2)CC1` [Compound 97, N-((1-(2-((1r,4r)-4-methylcyclo-hexylamino)-2-oxoethyl)piperidin-4-yl)methyl)-3,5-bis(trifluoromethyl) benzamide], in test [1], the IC50 was determined as 0.1 µM.
Same read-out and setting: the result for `O=C(CN1CCC(CNC(=O)c2cc(C(F)(F)F)cc(C(F)(F)F)c2)CC1)NC1CC1` [Compound 95, N-((1-(2-(cyclopropylamino)-2-oxoethyl)piperidin-4-yl)methyl)-3,5-bis(trifluoromethyl)benzamide] reads above 10 µM.
Consider `CCC1CCCN1C(=O)CN1CCC(CNC(=O)c2cc(C(F)(F)F)cc(C(F)(F)F)c2)CC1` (centres unmarked) [Compound 105, N-((1-(2-(2-ethylpyrrolidin-1-yl)-2-oxoethyl)piperidin-4-yl)methyl)-3,5-bis(trifluoromethyl)benzamide], for which the IC50 in test [1] stood at 0.28 µM.
The same measure, in the same setting: the result for `COCCC(=O)NCCN1CCC(CNC(=O)c2cc(C(F)(F)F)cc(C(F)(F)F)c2)CC1` [Compound 68, N-((1-(2-(3-methoxypropanamido)ethyl)piperidin-4-yl)methyl)-3,5-bis(trifluoromethyl) benzamide] reads 7.56 µM; that for `CC(C)(C)C(=O)N1CC(N2CCC(CNC(=O)c3cc(F)cc(Cl)c3)CC2)C1` [Compound 607, 3-chloro-5-fluoro-N-((1-(1-pivaloyl-azetidin-3-yl)piperidin-4-yl)methyl) benzamide], 3.17 µM.
Still for that read-out and setting: the result for `CC(C)(C)NC(=O)N1CC(N2CCC(CNC(=O)c3cc(F)cc(Cl)c3)CC2)C1` [Compound 612, N-tert-butyl-3-(4-((3-chloro-5-fluorobenzamido)methyl)piperidin-1-yl)azetidin-1-carboxamide] reads above 10 µM.
As to `CCS(=O)(=O)NC(C)(C)CN1CCC(CNC(=O)c2cc(F)cc(C(F)(F)F)c2)CC1` [Compound 7, N-((1-(2-(ethylsulfonamido)-2-methylpropyl)piperidin-4-yl)methyl)-3-fluoro-5-(trifluoromethyl)benzamide], the IC50 in test [1] worked out at 4.33 µM.
For `CCC(=O)NCCN1CCC(CNC(=O)c2cc(C(F)(F)F)cc(C(F)(F)F)c2)CC1` [Compound 58, N-((1-(2-propionamidoethyl)piperidin-4-yl)methyl)-3,5-bis(trifluoromethyl) benzamide], in test [1], the IC50 was 4.01 µM.
